According to patent US7319094B2, “Increased and sustained in vivo gene expression using a nucleic acid, histone and amphipathic compound composition” (Rhode Island Hospital, priority 2001, dated 2008):
“Also recorded” adds a separate entry of the source.

Key:
Type in all cases: cell-based, human
[1] = test system: PNET2 cells induced to express AD7c-NTP; experiment: Cell morphology by phase contrast microscopy; conditions: IPTG-induced AD7c-NTP; insulin 50 nM, IGF-1 5 ng/ml, NGF 2.5 ng/ml, PDGF 5 ng/ml; 24-48 hours
Procedure: (§1) To examine the effects of different growth factors on AD7c-NTP expression (and over-expression), the cells were serum-starved for 16 hours, after which IPTG (1-5 mM) was added to the medium. Four hours later, the cells were stimulated with insulin (50 nM), IGF-1 (5 ng/ml), NGF ([…]), or platelet-derived growth factor (PDGF; 5 ng/ml) for 24-72 hours. The cells were analyzed for morphological changes, viability, AD7c-NTP immunoreactivity, and expression of pro-apoptosis genes, survival genes, and phospho-tau.
Cells were serum-starved for 24 hours. However, since several hours of IPTG stimulation were required to induce AD7c-NTP gene expression or CAT activity, IPTG (3 mM) was added to the cultures after 16 hours of serum-starvation, i.e. 8 hours prior to growth factor stimulation. The cells were stimulated with insulin (50 nM), IGF-1 (5 ng/ml), NGF (2.5 ng/ml), or PDGF (5 ng/ml) and examined by phase contrast microscopy 24-48 hours later. PNET2 cells could be maintained in serum-free medium for 5 to 7 days with insulin, IGF-1, NGF, or PDGF as the only growth stimulus. In addition, each of these growth factors supports DNA synthesis and promotes modest outgrowth of multipolar neurites in PNET2 cells.

[2] = test system: PNET2 cells induced to express AD7c-NTP; experiment: Crystal violet viability assay; conditions: 3 mM IPTG-induced AD7c-NTP; relative to un-induced FCS-stimulated and IPTG-induced NGF or PDGF stimulated cultures
Procedure: as §1
Viability was measured by a standard crystal violet assay. Crystal violet dye labels only viable cells. The assays were performed with cells seeded into 96-well plates at a density of 2×10^4 cells/well. The absorbances were measured using a Spectracount plate reader (Packard, Meriden, Conn.). The crystal violet absorbances increased linearly with cell density between 10^4 and 5×10^5 cells/well.
Cells were serum-starved for 24 hours. However, since several hours of IPTG stimulation were required to induce AD7c-NTP gene expression or CAT activity, IPTG (3 mM) was added to the cultures after 16 hours of serum-starvation, i.e. 8 hours prior to growth factor stimulation. […]
Increased cell loss associated with insulin-stimulation and AD7c-NTP over-expression Cell viability was quantified using the microculture Crystal violet assay with cells seeded into 96-well plates. […]

[3] = test system: Bcl-2; experiment: Bcl-2 expression, Western blot / MICE assay; conditions: PNET2 cells induced to express AD7c-NTP, growth factor stimulated
Description: (§2) Standard Western blot assays wew used to measure cellular levels of p53, Bcl-2, p21/Waf1, phospho-tau, tau, c-fos, NTP, and activated (phosphorylated) forms of Erk mitogen activated protein (MAP) kinase, amino-terminal c-jun-activated kinase (pJNK), and p38/HOG1. Immunoprecipitation followed by Western blot analysis was used to measure p85 subunit associated with IRS1. For Western blot analysis of p53 Bcl-2, phospho-tau, tau, c-fos, and NTP, the cells were lysed in ice cold radioimmunoprecipitation assay (RIPA) buffer supplemented with protease and phosphatase inhibitors. For the immunoprecipitation studies, Western blot analysis of phospho-Erk, pJNK, and p38, and the PI3 kinase assays, the cells were harvested in Triton lysis buffer supplemented with protease and phosphatase inhibitors. Protein concentrations were measured using the BCA assay (Pierce, Rockford, Ill.). Samples containing 60 μg of protein were fractionated by sodium dodecyl sulfate polyacrylamide gel electrophoresis (SDS-PAGE), then transferred to PVDF membranes, and analyzed by Western immunoblotting. Immunoreactivity was detected with horseradish peroxidase conjugated secondary IgG and PicoWest enhanced chemiluminescence reagents (Pierce Chemical Company, Rockford, Ill.). CAT activity was measured using known methods.
(§3) The MICE assay is known in the art (e.g., as described by de la Monte et al., 1999, Biotechniques 26:107301076). The assay is a rapid and sensitive method for quantifying immunoreactivity in 96-well micro-cultures and combines the advantages of the enzyme-linked immunosorbant assay with immunocytochemical staining to permit sensitive in situ quantification of protein expression with values normalized to cell density. […] Immunoreactivity was detected using horseradish peroxidase conjugated secondary antibody (Pierce, Rockford, Ill.) and the TMB soluble peroxidase substrate (Pierce, Rockford, Ill.). Absorbances were measured at 450 nm using a Spectracount plate reader. […]

[4] = test system: p53; experiment: p53 expression, Western blot / MICE assay; conditions: PNET2 cells induced to express AD7c-NTP, growth factor stimulated
Description: as §2, §3

[5] = test system: phospho-Erk MAPK; experiment: Growth factor stimulated phospho-Erk MAPK, Western blot
Description: as §2
The potential mechanisms by which the differential effects of insulin, IGF1 and PDGF might occur were explored by examining pathways, which mediate PNET2 neuronal apoptosis and neuritic sprouting. […] Western blot analysis was performed with cell lysates obtained from cultures stimulated with insulin, IGF1, or PDGF for 0-30 minutes or 24 hours with equivalent protein loading (60 μg/sample). The membranes were probed using antibodies to Erk, phospho-Erk, Jun, and phospho-JNK. […] In contrast, after 24 hours of AD7c-NTP gene induction and growth factor stimulation, high levels of phospho-Erk MAPK were detected in the IGF-1 and PDGF-stimulated cultures, but not in the serum-starved or insulin-stimulated cultures. […] In contrast, the levels of c-fos transcription factor were equally expressed after 24 hours IPTG induction of AD7c-NTP expression and either serum starvation or stimulation with insulin, IGF1 or PDGF.

## insulin: Human insulin purchased from Novagen
[1]
  cell morphology: neurite retraction, cell rounding and increased cell death
[2]
  cell density (crystal violet): significantly reduced cell densities
[3]
  Bcl-2 level: virtually undetectable Bcl-2 expression; also recorded: reduced levels
[4]
  p53 level: high levels of p53; also recorded: significantly increased levels
[5]; 0-30 minutes stimulation
  phospho-Erk MAPK level, short-term stimulation: increased levels
[5]; 24 hours of AD7c-NTP induction and growth factor stimulation
  phospho-Erk MAPK level, 24 hours: reduced levels
